These are literature values, as cited in patent US6984402B2, “Chrono delivery formulations and method of treating atrial fibrillation” (Elite Laboratories, Inc., priority 2000, dated 2006).

Molecules are shown by their SMILES.

`COc1ccc([C@@H]2Sc3ccccc3N(CCN(C)C)C(=O)[C@@H]2OC(C)=O)cc1` [diltiazem]: the half-life in blood (humans) is 3 to 4 h. Besides, under “oral, compared with intravenous administration”, the absolute bioavailability is recorded as 40%.
